This note sets out measurements from US10766894B2, “Aza-indazole compounds for use in tendon and/or ligament injuries” (NOVARTIS AG, priority 2016, dated 2020).

Like-named read-outs stand apart in the source and are kept apart here.

For the test, the system named is mouse immortalized TT-D6 Scx-luciferase (ScxL) cell line; transcriptional activation of Scleraxis (Scx) gene. Description: SCX-LUC in vitro assay (scleraxis promoter luciferase reporter). The note with it: Mus musculus. It counts as cell-based. A general note: In a reporter assay the amount or activity of a reporter protein is the signal.
[1] abbreviates: 96 h, Examples table, TT-D6 Scx-luciferase cells, 1 ng/ml TGFβ1, four days, read-out: Scx-Luc (EC50 μM).

By EC50 is commonly meant the concentration at which the effect is half-maximal. With `Nc1n[nH]c2ccc(-c3ccc(S(=O)(=O)N[C@H]4CC[C@H](O)CC4)cc3Cl)nc12` [Example 45, 4-(3-amino-1H-pyrazolo[4,3-b]pyridin-5-yl)-3-chloro-N-((1r,4r)-4-hydroxycyclohexyl)benzenesulfonamide], the EC50 under setting [1] is 4.73 µM. As for `Nc1n[nH]c2ccc(-c3ccc(NS(=O)(=O)[C@H]4CCCC[C@H]4O)cc3Cl)nc12` [Example 14, (1S,2R)—N-(4-(3-amino-1H-pyrazolo[4,3-b]pyridin-5-yl)-3-chlorophenyl)-2-hydroxycyclohexane-1-sulfonamide], the EC50 under setting [1] was 1.12 µM. Same read-out and setting: then `Nc1n[nH]c2ccc(-c3ccc(S(=O)(=O)Nc4cccc(Cl)c4Cl)cc3Cl)nc12` [Example 56, 4-(3-amino-1H-pyrazolo[4,3-b]pyridin-5-yl)-3-chloro-N-(2,3-dichlorophenyl)benzenesulfonamide], with 1.64 µM; and `C[C@]1(O)CC[C@H](NS(=O)(=O)c2ccc(-c3ccc4[nH]nc(N)c4n3)c(Cl)c2)CC1` [Example 58, 4-(3-amino-1H-pyrazolo[4,3-b]pyridin-5-yl)-3-chloro-N-((1r,4r)-4-hydroxy-4-methylcyclohexyl)benzenesulfonamide], with 1.51 µM. Regarding `Cc1cc(S(=O)(=O)N2CCC[C@H]2CO)ccc1-c1ccc2[nH]nc(N)c2n1` [Example 70, (S)-(1-((4-(3-amino-1H-pyrazolo[4,3-b]pyridin-5-yl)-3-methylphenyl)sulfonyl)pyrrolidin-2-yl)methanol], the EC50 under setting [1] is 0.762 µM. For the molecule `Cc1ccc(O)c(S(=O)(=O)Nc2ccc(-c3ccc4[nH]nc(N)c4n3)c(Cl)c2)c1` [Example 32, N-(4-(3-amino-1H-pyrazolo[4,3-b]pyridin-5-yl)-3-chlorophenyl)-2-hydroxy-5-methylbenzenesulfonamide], the EC50 under setting [1] came to 1.94 µM. Turning to `Cc1cc(S(=O)(=O)N[C@H]2CC[C@@H](O)CC2)ccc1-c1ccc2[nH]nc(N)c2n1` [Example 69, 4-(3-amino-1H-pyrazolo[4,3-b]pyridin-5-yl)-N-((1s,4s)-4-hydroxycyclohexyl)-3-methylbenzenesulfonamide], the EC50 under setting [1] came out at 0.912 µM. For `Nc1n[nH]c2ccc(-c3ccc(S(=O)(=O)Nc4cccc(F)c4F)cc3Cl)nc12` [Example 81, 4-(3-amino-1H-pyrazolo[4,3-b]pyridin-5-yl)-3-chloro-N-(2,3-difluorophenyl)benzenesulfonamide], the EC50 under setting [1] amounted to 0.203 µM. As to `N#Cc1cccc(S(=O)(=O)Nc2ccc(-c3ccc4[nH]nc(N)c4n3)c(Cl)c2)c1` [Example 22, N-(4-(3-amino-1H-pyrazolo[4,3-b]pyridin-5-yl)-3-chlorophenyl)-3-cyanobenzenesulfonamide], under setting [1], the EC50 came out at 0.035 µM. As to `Cc1cc(S(=O)(=O)N2CC(F)(F)CC2C(N)=O)ccc1-c1ccc2[nH]nc(N)c2n1` (centres unmarked) [Example 34, 1-((4-(3-amino-1H-pyrazolo[4,3-b]pyridin-5-yl)-3-methylphenyl)sulfonyl)-4,4-difluoropyrrolidine-2-carboxamide], the EC50 under setting [1] is 5.02 µM. As for `Nc1n[nH]c2ccc(-c3ccc(NS(=O)(=O)c4ccc(F)c(Cl)c4)cc3Cl)nc12` [Example 27, N-(4-(3-amino-1H-pyrazolo[4,3-b]pyridin-5-yl)-3-chlorophenyl)-3-chloro-4-fluorobenzenesulfonamide], under setting [1], the EC50 amounted to 1.08 µM. With `Nc1n[nH]c2ccc(-c3ccc(NS(=O)(=O)c4ccc(F)cc4)cc3Cl)nc12` [Example 6, N-(4-(3-amino-1H-pyrazolo[4,3-b]pyridin-5-yl)-3-chlorophenyl)-4-fluorobenzenesulfonamide], the EC50 under setting [1] was determined as 0.58 µM. With `Nc1n[nH]c2ccc(-c3ccc(S(=O)(=O)N4CCC[C@H]4CO)cc3Cl)nc12` [(S)-(1-((4-(3-amino-1H-pyrazolo[4,3-b]pyridin-5-yl)-3-chlorophenyl)sulfonyl)pyrrolidin-2-yl)methanol], under “further compounds not numbered as examples, read-out: EC50 in the Scx-Luc assay”, the EC50 was above 10 µM. `Nc1n[nH]c2ccc(-c3ccc(NS(=O)(=O)[C@@H]4CCCC[C@@H]4O)cc3Cl)nc12` [Example 60, (1R,2S)—N-(4-(3-amino-1H-pyrazolo[4,3-b]pyridin-5-yl)-3-chlorophenyl)-2-hydroxycyclohexane-1-sulfonamide]: the EC50 under setting [1] worked out at 3.04 µM.
